Measured values from PMC4854315, “Discovery of a novel allosteric inhibitor-binding site in ERK5: comparison with the canonical kinase hinge ATP-binding site” (Acta Crystallographica. Section D, Structural Biology, 2016).

Tests used:
Assay in all cases: Z'-LYTE kinase panel
Format in all cases: biochemical
JAK1 = target: T1, JAK1 (Homo sapiens, UniProt P23458)
T1 construct: purchased ThermoFisher (SelectScreen, Z'-LYTE)
Method in brief: (§1)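 Readout is percentage inhibition, obtained from the standard Z′-LYTE protocol with test compound present at 10 µM; screened within a panel of 225 kinases.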

RPS6KA6 (RSK4) = target: T2, RPS6KA6 (RSK4) (Homo sapiens, UniProt Q9UK32)
T2 construct: purchased ThermoFisher (SelectScreen, Z'-LYTE)
Method in brief: as §1

DCAMKL2 (DCK2) = target: T3, DCAMKL2 (DCK2) (Homo sapiens, UniProt Q8N568)
T3 construct: purchased ThermoFisher (SelectScreen, Z'-LYTE)
T3 sequence (Q8N568 1-766): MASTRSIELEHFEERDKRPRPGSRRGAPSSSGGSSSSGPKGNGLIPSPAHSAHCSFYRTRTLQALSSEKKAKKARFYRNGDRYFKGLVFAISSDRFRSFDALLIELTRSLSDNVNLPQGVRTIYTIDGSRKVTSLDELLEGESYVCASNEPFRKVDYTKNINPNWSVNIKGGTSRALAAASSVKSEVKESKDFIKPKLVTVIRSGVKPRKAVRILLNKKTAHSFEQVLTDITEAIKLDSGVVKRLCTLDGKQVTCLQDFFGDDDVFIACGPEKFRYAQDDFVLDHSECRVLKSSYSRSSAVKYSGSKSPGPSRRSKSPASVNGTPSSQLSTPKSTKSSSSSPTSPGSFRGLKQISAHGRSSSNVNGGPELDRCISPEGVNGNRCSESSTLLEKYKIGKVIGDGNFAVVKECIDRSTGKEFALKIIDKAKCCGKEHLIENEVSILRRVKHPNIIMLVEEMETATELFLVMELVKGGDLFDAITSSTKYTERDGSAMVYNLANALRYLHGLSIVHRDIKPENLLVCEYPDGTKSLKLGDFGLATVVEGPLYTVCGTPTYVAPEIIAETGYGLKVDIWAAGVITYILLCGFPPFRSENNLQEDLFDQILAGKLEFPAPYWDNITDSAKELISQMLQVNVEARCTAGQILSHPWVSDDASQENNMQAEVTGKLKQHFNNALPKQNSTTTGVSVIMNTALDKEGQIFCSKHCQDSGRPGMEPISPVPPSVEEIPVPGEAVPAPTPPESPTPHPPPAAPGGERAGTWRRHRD
Method in brief: as §1

AXL = target: T4, AXL (Homo sapiens, UniProt P30530)
T4 construct: purchased ThermoFisher (SelectScreen, Z'-LYTE)
T4 sequence (P30530 26-894): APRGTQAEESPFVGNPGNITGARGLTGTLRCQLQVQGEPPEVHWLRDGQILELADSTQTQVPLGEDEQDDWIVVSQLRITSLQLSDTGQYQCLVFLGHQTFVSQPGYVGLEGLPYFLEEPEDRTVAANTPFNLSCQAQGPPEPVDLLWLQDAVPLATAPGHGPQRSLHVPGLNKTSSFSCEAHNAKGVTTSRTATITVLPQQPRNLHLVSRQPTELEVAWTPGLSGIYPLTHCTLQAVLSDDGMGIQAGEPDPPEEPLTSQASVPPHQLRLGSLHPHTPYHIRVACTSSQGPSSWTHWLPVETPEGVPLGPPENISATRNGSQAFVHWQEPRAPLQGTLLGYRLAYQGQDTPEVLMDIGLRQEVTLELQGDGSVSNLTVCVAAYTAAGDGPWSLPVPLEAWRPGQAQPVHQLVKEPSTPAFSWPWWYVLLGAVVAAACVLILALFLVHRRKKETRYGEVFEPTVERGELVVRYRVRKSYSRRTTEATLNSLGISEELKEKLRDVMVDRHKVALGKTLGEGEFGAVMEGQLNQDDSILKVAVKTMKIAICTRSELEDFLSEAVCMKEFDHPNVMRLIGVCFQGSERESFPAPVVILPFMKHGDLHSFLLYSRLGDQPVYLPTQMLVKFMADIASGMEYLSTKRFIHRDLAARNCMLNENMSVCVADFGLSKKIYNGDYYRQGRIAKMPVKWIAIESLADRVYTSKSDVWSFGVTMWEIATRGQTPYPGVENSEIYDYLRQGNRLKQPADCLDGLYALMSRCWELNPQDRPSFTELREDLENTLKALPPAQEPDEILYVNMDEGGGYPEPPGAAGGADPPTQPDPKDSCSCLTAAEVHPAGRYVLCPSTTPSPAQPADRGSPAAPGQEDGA
Method in brief: as §1

CLK3 = target: T5, CLK3 (Homo sapiens, UniProt P49761)
T5 construct: purchased ThermoFisher (SelectScreen, Z'-LYTE)
Method in brief: as §1

PDK1 Direct = target: T6, PDK1 Direct (Homo sapiens, UniProt O15530)
T6 construct: purchased ThermoFisher (SelectScreen, Z'-LYTE)
T6 sequence (O15530 1-556): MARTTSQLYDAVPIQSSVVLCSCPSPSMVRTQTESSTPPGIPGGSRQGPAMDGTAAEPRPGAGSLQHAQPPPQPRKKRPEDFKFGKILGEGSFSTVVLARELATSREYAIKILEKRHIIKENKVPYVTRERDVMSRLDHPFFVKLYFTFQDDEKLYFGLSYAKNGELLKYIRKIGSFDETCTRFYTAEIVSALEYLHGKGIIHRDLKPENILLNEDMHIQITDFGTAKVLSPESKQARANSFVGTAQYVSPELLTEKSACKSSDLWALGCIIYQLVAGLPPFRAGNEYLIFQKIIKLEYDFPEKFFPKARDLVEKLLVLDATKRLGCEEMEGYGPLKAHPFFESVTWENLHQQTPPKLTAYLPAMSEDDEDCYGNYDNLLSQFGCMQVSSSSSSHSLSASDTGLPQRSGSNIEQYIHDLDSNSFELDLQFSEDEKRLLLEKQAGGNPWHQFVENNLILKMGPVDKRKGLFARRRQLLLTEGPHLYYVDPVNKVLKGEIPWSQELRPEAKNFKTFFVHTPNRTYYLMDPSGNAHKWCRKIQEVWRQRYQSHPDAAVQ
Method in brief: as §1

T2 sequence (Q9UK32 whole entry): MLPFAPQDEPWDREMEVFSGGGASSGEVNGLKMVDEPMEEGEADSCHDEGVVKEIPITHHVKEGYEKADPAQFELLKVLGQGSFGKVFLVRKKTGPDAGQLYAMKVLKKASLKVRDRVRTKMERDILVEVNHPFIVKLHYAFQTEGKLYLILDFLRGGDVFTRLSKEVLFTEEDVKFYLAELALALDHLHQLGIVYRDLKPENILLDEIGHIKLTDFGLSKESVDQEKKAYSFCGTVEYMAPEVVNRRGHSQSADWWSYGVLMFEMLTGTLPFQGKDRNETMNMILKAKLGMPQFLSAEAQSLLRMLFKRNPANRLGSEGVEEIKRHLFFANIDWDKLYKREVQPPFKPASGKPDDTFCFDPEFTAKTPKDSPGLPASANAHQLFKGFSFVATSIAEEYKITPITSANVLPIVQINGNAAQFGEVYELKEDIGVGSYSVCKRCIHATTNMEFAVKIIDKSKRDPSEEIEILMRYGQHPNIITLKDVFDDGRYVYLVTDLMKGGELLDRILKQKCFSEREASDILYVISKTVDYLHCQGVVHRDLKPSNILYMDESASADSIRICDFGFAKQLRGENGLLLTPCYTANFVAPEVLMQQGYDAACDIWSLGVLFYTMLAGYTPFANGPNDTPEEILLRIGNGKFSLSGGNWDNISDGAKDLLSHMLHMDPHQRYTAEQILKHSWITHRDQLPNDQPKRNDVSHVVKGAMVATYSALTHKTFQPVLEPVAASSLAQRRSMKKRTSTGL
T5 sequence (P49761 whole entry): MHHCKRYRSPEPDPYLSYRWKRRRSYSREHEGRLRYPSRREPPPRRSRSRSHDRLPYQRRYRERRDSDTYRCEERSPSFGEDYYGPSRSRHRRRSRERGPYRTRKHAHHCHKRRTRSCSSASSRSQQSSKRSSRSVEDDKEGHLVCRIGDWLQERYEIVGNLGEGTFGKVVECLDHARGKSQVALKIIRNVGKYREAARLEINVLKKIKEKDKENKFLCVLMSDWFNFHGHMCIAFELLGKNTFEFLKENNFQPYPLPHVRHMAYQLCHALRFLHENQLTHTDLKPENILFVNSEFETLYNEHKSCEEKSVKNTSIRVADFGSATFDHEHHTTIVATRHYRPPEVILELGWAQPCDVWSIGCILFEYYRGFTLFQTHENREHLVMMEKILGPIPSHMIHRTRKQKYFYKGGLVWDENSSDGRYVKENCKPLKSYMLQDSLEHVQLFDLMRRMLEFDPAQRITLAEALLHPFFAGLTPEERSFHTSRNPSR
T1 sequence (P23458 whole entry): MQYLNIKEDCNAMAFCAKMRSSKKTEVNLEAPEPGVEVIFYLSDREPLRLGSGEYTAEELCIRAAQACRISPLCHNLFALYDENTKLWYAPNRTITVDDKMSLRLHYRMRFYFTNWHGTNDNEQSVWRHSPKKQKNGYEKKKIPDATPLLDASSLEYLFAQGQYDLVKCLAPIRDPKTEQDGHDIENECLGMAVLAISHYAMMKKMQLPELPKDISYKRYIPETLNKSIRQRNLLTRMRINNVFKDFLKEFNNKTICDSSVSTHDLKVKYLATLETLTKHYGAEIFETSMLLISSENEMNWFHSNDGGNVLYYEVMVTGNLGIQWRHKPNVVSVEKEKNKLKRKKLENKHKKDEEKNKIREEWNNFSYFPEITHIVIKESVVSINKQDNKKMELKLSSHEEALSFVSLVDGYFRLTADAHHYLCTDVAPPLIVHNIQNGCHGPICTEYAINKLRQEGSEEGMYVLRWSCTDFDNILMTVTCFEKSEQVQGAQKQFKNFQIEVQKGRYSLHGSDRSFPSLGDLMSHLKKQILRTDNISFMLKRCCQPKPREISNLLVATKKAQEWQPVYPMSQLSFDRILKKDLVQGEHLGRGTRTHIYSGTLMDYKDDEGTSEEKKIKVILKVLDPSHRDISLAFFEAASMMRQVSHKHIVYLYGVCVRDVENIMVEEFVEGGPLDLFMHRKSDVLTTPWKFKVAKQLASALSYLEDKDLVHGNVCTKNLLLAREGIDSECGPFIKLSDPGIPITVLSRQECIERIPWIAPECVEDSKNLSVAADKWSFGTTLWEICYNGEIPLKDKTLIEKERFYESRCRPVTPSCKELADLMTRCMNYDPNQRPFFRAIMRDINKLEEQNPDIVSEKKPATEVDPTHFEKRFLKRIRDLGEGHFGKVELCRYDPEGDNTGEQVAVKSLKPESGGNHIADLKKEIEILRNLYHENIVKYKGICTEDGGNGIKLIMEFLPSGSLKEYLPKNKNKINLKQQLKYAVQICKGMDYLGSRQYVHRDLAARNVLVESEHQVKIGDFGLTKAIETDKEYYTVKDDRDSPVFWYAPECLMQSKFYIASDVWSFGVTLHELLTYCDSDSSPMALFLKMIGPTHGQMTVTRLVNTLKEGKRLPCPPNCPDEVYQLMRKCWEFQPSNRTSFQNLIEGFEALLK

Cc1ncc(-c2nc(Nc3ccc(C(=O)NCCN4CCCCC4)cc3)ncc2F)n1C(C)C [Compound 3]
inhibition at 10 µM (JAK1): 101% | inhibition at 10 µM (RPS6KA6 (RSK4)): 82% | inhibition at 10 µM (DCAMKL2 (DCK2)): 62% | inhibition at 10 µM (AXL): 95% | inhibition at 10 µM (CLK3): 71% | inhibition at 10 µM (PDK1 Direct): 89%

Cc1cc(Nc2nc(N)nn2C(=O)NC(C)C)ccc1Cl [Compound 5]
inhibition at 10 µM (JAK1): 60% | inhibition at 10 µM (RPS6KA6 (RSK4)): 58% | inhibition at 10 µM (DCAMKL2 (DCK2)): -1.9% | inhibition at 10 µM (AXL): 18% | inhibition at 10 µM (CLK3): 12% | inhibition at 10 µM (PDK1 Direct): -1.67%

XMD8-92 [Compound 2, reference compound]
JAK1 % Inhibition (JAK1; 10 µM compound, ATP Km app): 32% | RPS6KA6 (RSK4) % Inhibition (RPS6KA6 (RSK4); 10 µM compound, ATP Km app): 72% | DCAMKL2 (DCK2) % Inhibition (DCAMKL2 (DCK2); 10 µM compound, ATP Km app): 61% | AXL % Inhibition (AXL; 10 µM compound, ATP Km app): 3% | CLK3 % Inhibition (CLK3; 10 µM compound, ATP Km app): 5.55% | PDK1 Direct % Inhibition (PDK1 Direct; 10 µM compound, ATP Km app): -15%
